This is an account of results in ChEMBL document CHEMBL5725801, “Fused heterocyclic compounds as CaM kinase inhibitors” (2018).

Several values for one entry are separate records, joined by “and”; a condition that tells them apart may be missing. Equal entries are not always repeated.

By EC50 is commonly meant the concentration giving half of the maximal effect. A higher EC50 goes with weaker potency.

The test is described as follows: CaMKII Cell-Based Activity: CaMKII activity in neonatal rat ventricular myocytes (NRVM) was measured by monitoring the phosphorylation level of phospholamban using high-content imaging. NRVMs were plated in a clear bottom 384-well plate in medium supplemented with 10% fetal bovine serum (FBS) and incubated at 37° C., 5% CO2 overnight. The medium was changed to a serum-free medium and compounds were dosed to the cells. The cells were incubated at 37° C., 5% CO2 for 4 hours and were then treated with 100 nM ATX-II (Alomone Labs) to activate CaMKII. 10 minutes after the addition of ATX-II, the cells were fixed with 4% formaldehyde followed by permeabilization with 0.1% triton X100. The fixed cells were stained with an anti-phospho-phospholamban primary antibody (Santa Cruz Biotechnology) and an Alexa488-labeled anti-rabbit IgG secondary antibody (Life Technologies Corporation) as well as Hoechst 33342 (Life Technologies Corporation). The cells were imaged using an ArrayScan VTI (Cellomics) and analyzed for cells containing a positive fluorescent signal at 485 nm, reported as % responder. The % responders were plotted against the compound concentration to determine the compounds EC50.
`CCN(CC)CCNC(=O)c1ccnc(-c2cnn3ccc(-c4cccs4)nc23)c1` came in with a concentration giving a half-maximal response (EC50) of 17.1 nM.
As for `CCN(CC)[C@@H](C)CNC(=O)c1ccnc(-c2cnn3ccc(-c4cccs4)nc23)c1`, the figure is 21.4 nM; as for `CC(C)C(N)CNC(=O)c1ccnc(-c2cnn3ccc(-c4ccccc4)nc23)c1` (configuration not stated), 44.1 nM; as for `C[C@@H](CNC(=O)c1ccnc(-c2cnn3ccc(-c4cccs4)nc23)c1)NCCO`, 301 nM.
As for `NC[C@H]1CCCN1C(=O)c1ccnc(-c2cnn3ccc(-c4cccs4)nc23)c1`, the figure is 58.3 nM.
The result for `O=C(NC[C@@H]1CCCN1)c1ccnc(-c2cnn3ccc(-c4cccs4)nc23)c1` reads 125 nM; that for `CCN(CC)C(C)CNC(=O)c1ccnc(-c2cnn3ccc(-c4ccccc4)nc23)c1` (configuration not stated), 103 nM.
The molecule `CC(C)NC(CNC(=O)c1ccnc(-c2cnn3ccc(-c4ccccc4)nc23)c1)C(C)C` (configuration not stated) had an EC50 of 152 nM.
Take `CCC(CNC(=O)c1ccnc(-c2cnn3ccc(-c4cccs4)nc23)c1)NC(C)C` (configuration not stated): it took 60 nM to reach a half-maximal effect (EC50).
Take `C[C@@H](CNC(=O)c1ccnc(-c2cnn3ccc(-c4cccs4)nc23)c1)NCCF`: the concentration giving a half-maximal response (EC50) was 95.2 nM.
The result for `O=C(NCC1CCCCN1)c1ccnc(-c2cnn3ccc(-c4cccs4)nc23)c1` (configuration not stated) reads 288 nM; that for `O=C(c1ccnc(-c2cnn3ccc(-c4ccccc4)nc23)c1)N1CCCCC12CCCNC2` (configuration not stated), 45.3 nM.
The molecule `C[C@@H](CNC(=O)c1ccnc(-c2cnn3ccc(-c4ccccc4)nc23)c1)NCc1ncccn1` displayed an EC50 of 779 nM.
Molecule `CCN(CC)[C@@H](C)CNC(=O)c1ccnc(-c2cnn3ccc(-c4ccccc4)nc23)c1` registered an EC50 of 29 nM.
The result for `N[C@H]1CCC[C@@H]1NC(=O)c1ccnc(-c2cnn3ccc(-c4ccccc4)nc23)c1` reads 287 nM; that for `CN(C)CCNC(=O)c1ccnc(-c2cnn3ccc(-c4ccccc4)nc23)c1`, 320 nM.
The result for `O=C(NC[C@@H]1C[C@H](F)CN1)c1ccnc(-c2cnn3ccc(-c4cccs4)nc23)c1` reads 386 nM.
As for `CCN(CC)[C@@H](CO)CNC(=O)c1ccnc(-c2cnn3ccc(-c4ccccc4)nc23)c1`, the figure is 61.9 nM; as for `CC[C@@]1(CNC(=O)c2ccnc(-c3cnn4ccc(-c5ccccc5)nc34)c2)CCCN1`, 279 nM.
Take `CCC[C@@]1(CNC(=O)c2ccnc(-c3cnn4ccc(-c5cccs5)nc34)c2)CCCN1`: the response was half-maximal at 99.2 nM (EC50). Compared with the last molecule, the EC50 is about 2.8-fold lower.
`CC[C@]1(CNC(=O)c2ccnc(-c3cnn4ccc(-c5ccccc5)nc34)c2)CCCN1` displayed a half-maximal effective concentration (EC50) of 143 nM.
In the case of `CCCN[C@@H](C)CNC(=O)c1ccnc(-c2cnn3ccc(-c4cccs4)nc23)c1`, the EC50 was 65.2 nM. Compared with the last molecule, the EC50 is about 2.2-fold lower.
The molecule `C[C@H](N)CNC(=O)c1ccnc(-c2cnn3ccc(-c4cccs4)nc23)c1` displayed an EC50 of 62.2 nM.
In turn, `C[C@@H](CNC(=O)c1ccnc(-c2cnn3ccc(-c4cccs4)nc23)c1)NCC1CC1` displayed an EC50 of 15.1 nM. Against the preceding molecule, the EC50 is about 4.1-fold lower.
For `O=C(c1ccnc(-c2cnn3ccc(-c4cccs4)nc23)c1)N1C2CCNCC1CC2` (configuration not stated), the EC50 was determined as 187 nM.
The result for `O=C(NC[C@]1(CC2CC2)CCCN1)c1ccnc(-c2cnn3ccc(-c4cccs4)nc23)c1` reads 66.9 nM.
As to `CCCC(N)CNC(=O)c1ccnc(-c2cnn3ccc(-c4ccccc4)nc23)c1` (configuration not stated), the EC50 came out at 11.8 nM.
As to `CC(CN)NC(=O)c1ccnc(-c2cnn3ccc(-c4ccccc4)nc23)c1` (configuration not stated), a half-maximal effect (EC50) was put at 175 nM.
The result for `CCN(CC)C(CNC(=O)c1ccnc(-c2cnn3ccc(-c4ccccc4)nc23)c1)C(C)C` (configuration not stated) reads 37.2 nM; that for `O=C(NC[C@@H]1CCN1)c1ccnc(-c2cnn3ccc(-c4cccs4)nc23)c1`, 132 nM; that for `CCN[C@@H](C)CNC(=O)c1ccnc(-c2cnn3ccc(-c4cccs4)nc23)c1`, 33 nM.
Turning to `CCC(N)CNC(=O)c1ccnc(-c2cnn3ccc(-c4ccccc4)nc23)c1` (configuration not stated), a half-maximal response (EC50) required 80.9 nM. Against the preceding molecule, the EC50 is about 2.5-fold higher.
The result for `NC[C@H]1CC(F)(F)CN1C(=O)c1ccnc(-c2cnn3ccc(-c4cccs4)nc23)c1` reads 316 nM; that for `CCN(CC(F)F)[C@@H](C)CNC(=O)c1ccnc(-c2cnn3ccc(-c4cccs4)nc23)c1`, 197 nM; that for `O=C(c1ccnc(-c2cnn3ccc(-c4cccs4)nc23)c1)N1CC2CCC(C1)NC2` (configuration not stated), 95.4 nM.
`CCCC(CNC(=O)c1ccnc(-c2cnn3ccc(-c4ccccc4)nc23)c1)N(CC)CC` (configuration not stated) displayed an EC50 of 31.2 nM. This EC50 is about 3.1-fold lower than that of the molecule before.
As for `N[C@H]1CCCN(C(=O)c2ccnc(-c3cnn4ccc(-c5cccs5)nc34)c2)C1`, the figure is 217 nM.
In the case of `CCC(C)N[C@@H](C)CNC(=O)c1ccnc(-c2cnn3ccc(-c4ccccc4)nc23)c1` (some centres not stated), the EC50 is 25.3 nM.
For the molecule `CCN(CC)C(C)CNC(=O)c1ccnc(-c2cnn3ccc(-c4cccs4)nc23)c1` (configuration not stated), the EC50 was determined as 35.4 nM.
For `CC1(C)CNC1CNC(=O)c1ccnc(-c2cnn3ccc(-c4ccccc4)nc23)c1` (configuration not stated), the EC50 is 166 nM.
On to `CC(C)C(CNC(=O)c1ccnc(-c2cnn3ccc(-c4ccccc4)nc23)c1)NCC1CC1` (configuration not stated), for which the midpoint of the response, the EC50, lay at 88.8 nM.
`C[C@@H](NC(=O)c1ccnc(-c2cnn3ccc(-c4cccs4)nc23)c1)[C@@H]1CCCN1` showed an EC50 of 518 nM.
On to `O=C(c1ccnc(-c2cnn3ccc(-c4ccccc4)nc23)c1)N1CCC2CNCC21` (configuration not stated), for which a half-maximal response (EC50) required 48.5 nM.
Turning to `O=C(c1ccnc(-c2cnn3ccc(-c4ccccc4)nc23)c1)N1C2CCCC1CNCC2` (configuration not stated), the midpoint of the response, the EC50, lay at 51.6 nM.
As for `CCCNC(CC)CNC(=O)c1ccnc(-c2cnn3ccc(-c4ccccc4)nc23)c1` (configuration not stated), the figure is 8.15 nM; as for `CCN[C@H](CNC(=O)c1ccnc(-c2cnn3ccc(-c4ccccc4)nc23)c1)COc1ncccn1`, 45.9 nM.
As to `O=C(NCC1CCCCCN1)c1ccnc(-c2cnn3ccc(-c4cccs4)nc23)c1` (configuration not stated), a half-maximal response (EC50) required 347 nM. Compared with the last molecule, the EC50 is about 7.6-fold higher.
For `CCC(CNC(=O)c1ccnc(-c2cnn3ccc(-c4ccccc4)nc23)c1)NCC1CC1` (configuration not stated), the response was half-maximal at 76.7 nM (EC50).
As for `CCN[C@@H](CO)CNC(=O)c1ccnc(-c2cnn3ccc(-c4ccccc4)nc23)c1`, the figure is 243 nM.
The result for `CCNC(C)(C)CNC(=O)c1ccnc(-c2cnn3ccc(-c4ccccc4)nc23)c1` reads 67.4 nM.
Consider `CCN(CCN)C(=O)c1ccnc(-c2cnn3ccc(-c4ccccc4)nc23)c1`, for which the concentration for a half-maximal effect (EC50) was 169 nM.
`O=C(c1ccnc(-c2cnn3ccc(-c4cccs4)nc23)c1)N1CC2CCC[C@@H](C1)NC2` had an EC50 of 54.3 nM. This EC50 lies about 3.1-fold lower than the previous one.
The molecule `N[C@@H](CO)CNC(=O)c1ccnc(-c2cnn3ccc(-c4ccccc4)nc23)c1` gave an EC50 of 334 nM.
The result for `N[C@H]1CCN(C(=O)c2ccnc(-c3cnn4ccc(-c5cccs5)nc34)c2)C1` reads 172 nM; that for `C[C@@H]1CNCCN1C(=O)c1ccnc(-c2cnn3ccc(-c4cccs4)nc23)c1`, 208 nM; that for `CC(C)(N)CNC(=O)c1ccnc(-c2cnn3ccc(-c4ccccc4)nc23)c1`, 110 nM.
For the molecule `CC(C)N[C@@H](C)CNC(=O)c1ccnc(-c2cnn3ccc(-c4cccs4)nc23)c1`, the EC50 came out at 166 nM.
The result for `CN1CCC[C@H]1CNC(=O)c1ccnc(-c2cnn3ccc(-c4cccs4)nc23)c1` reads 173 nM; that for `CCN[C@@H](C)CNC(=O)c1ccnc(-c2cnn3ccc(-c4ccccc4)nc23)c1`, 56.1 nM.
As for `N[C@H]1C[C@@H]2CCC[C@H]1N2C(=O)c1ccnc(-c2cnn3ccc(-c4ccccc4)nc23)c1`, the figure is 74 nM.
The result for `O=C(NC[C@H]1CCN1)c1ccnc(-c2cnn3ccc(-c4cccs4)nc23)c1` reads 126 nM; that for `O=C(NCC1CCCCN1)c1ccnc(-c2cnn3ccc(-c4ccccc4)nc23)c1` (configuration not stated), 955 nM; that for `CCN[C@H](C)CNC(=O)c1ccnc(-c2cnn3ccc(-c4ccccc4)nc23)c1`, 73.1 nM.
In turn, `O=C(c1ccnc(-c2cnn3ccc(-c4cccs4)nc23)c1)N1CC2CNC(COC2)C1` (configuration not stated) yielded an EC50 of 259 nM. Against the preceding molecule, the EC50 is about 3.5-fold higher.
`CCN[C@H](C)CNC(=O)c1ccnc(-c2cnn3ccc(-c4cccs4)nc23)c1`: the midpoint of the response, the EC50, lay at 34.8 nM.
The result for `CCN(CC)[C@H](CNC(=O)c1ccnc(-c2cnn3ccc(-c4ccccc4)nc23)c1)COc1ncccn1` reads 47.3 nM; that for `C[C@H](N)[C@@H]1CCCCN1C(=O)c1ccnc(-c2cnn3ccc(-c4ccccc4)nc23)c1`, 45.6 nM.
As for `CCNC(CC)CNC(=O)c1ccnc(-c2cnn3ccc(-c4ccccc4)nc23)c1` (configuration not stated), the figure is 46.8 nM.
The result for `N[C@@H]1CCC[C@H]1NC(=O)c1ccnc(-c2cnn3ccc(-c4ccccc4)nc23)c1` reads 259 nM.
`CC[C@@]1(CNC(=O)c2ccnc(-c3cnn4ccc(-c5cccs5)nc34)c2)CCCN1` registered an EC50 of 129 nM.
Turning to `C[C@@]1(CNC(=O)c2ccnc(-c3cnn4ccc(-c5cccs5)nc34)c2)CCCN1`, the EC50 was 142 nM.
`CCC(N)CNC(=O)c1ccnc(-c2cnn3ccc(-c4cccs4)nc23)c1` (configuration not stated) came in with an EC50 of 22.9 nM.
`CCNC(CNC(=O)c1ccnc(-c2cnn3ccc(-c4ccccc4)nc23)c1)C(C)C` (configuration not stated) yielded an EC50 of 107 nM.
In turn, `N[C@H]1CCN(C(=O)c2ccnc(-c3cnn4ccc(-c5ccccc5)nc34)c2)C1` came in with a concentration for a half-maximal effect (EC50) of 200 nM.
Consider `C[C@@H](CNC(=O)c1ccnc(-c2cnn3ccc(-c4cccs4)nc23)c1)NCC(F)F`, for which the EC50 was 443 nM and 149 nM.
As for `CCN[C@@H](CC)CNC(=O)c1ccnc(-c2cnn3ccc(-c4cccs4)nc23)c1`, the figure is 43.3 nM; as for `CN(C)CCNC(=O)c1ccnc(-c2cnn3ccc(-c4cccs4)nc23)c1`, 116 nM; as for `N[C@@H]1CCC[C@@H]1NC(=O)c1ccnc(-c2cnn3ccc(-c4ccccc4)nc23)c1`, 303 nM.
In the case of `CC(C)C[C@@]1(CNC(=O)c2ccnc(-c3cnn4ccc(-c5cccs5)nc34)c2)CCCN1`, a half-maximal response (EC50) required 66 nM.
Take `CCCNC(CNC(=O)c1ccnc(-c2cnn3ccc(-c4ccccc4)nc23)c1)C(C)C` (configuration not stated): the response was half-maximal at 42.9 nM (EC50).
As for `C[C@@H](CNC(=O)c1ccnc(-c2cnn3ccc(-c4cccs4)nc23)c1)NCC(F)(F)F`, the figure is 717 nM; as for `O=C(NCC12CCCN1CCC2)c1ccnc(-c2cnn3ccc(-c4cccs4)nc23)c1`, 41.5 nM.
